Measured values: patent US20230271956A1, “AMIDE DERIVATIVES” (Merck Patent GmbH, priority 2020, published 2023)

Legend:
human rec ACSS2 = biological target: T1, human rec ACSS2 (Homo sapiens, UniProt Q9NR19); experiment: Biochemical activity ACSS2 assay (AMP-Glo); conditions: human recombinant ACSS2, AMP-Glo, 180 min at 37° C.
T1 construct: myc (C); purchased Origene
Protocol: The biochemical activity assay for ACSS2 is based on the detection of released AMP by AMP-Glo ™ Assay kit (Promega, Madison). The assay is run in three steps: the enzymatic reaction in which human rec ACSS2 activates acetate with ATP and Coenzyme A as cosubstrates to acetyI-coA thereby releasing AMP and the detection reaction of AMP by AMP Glo assay in which after the destruction of the residual ATP with AMP Glo reagent 1 produced AMP is converted to ATP that is measured in a luciferase assay system (detection reagent). The ACSS2 activity correlates with the detected luminescence signal.
The assay was performed in Perkin Elmer 384well white Proxiplates in a total volume of 8 µl.
1 nM (fc) C-term myc tagged ACSS2 (human, recombinant, Origene, Rockville, US) and a mixture of 100 µM (fc) ATP, 100 µM (fc) Coenzyme A and 500 µM (fc) sodium acetate were incubated in a total volume of 5 µl (50 mM Hepes, 1 mM Mg-chloride, 150 mM NaCl, 1 mM DTT, 0.01 % (w/v) BSA, 0.3 % DMSO, pH 7.5) in the absence or presence of the test compound (10 dilution concentrations, start conc 30 µM) for 180 min at 37° C. The reaction was stopped and residual ATP destroyed by the addition of 1 µl AMP Glo reagent solution (Promega, Madison, US). After 1 h incubation at room temperature 2 µl of AMP Glo detection reagent was added and the assay was incubated for 0.75 hr at room temperature. The luminescence signal was measured with an Envision multimode reader (Perkin Elmer LAS Germany GmbH) at 700 nm in luminescence mode. The full value used was the inhibitor-free reaction. The pharmacological zero value was generated by addition of ACSS2 inhibitor (Ac-CoA Synthase Inhibitor - CAS 508186-14-9 -Calbiochem) in a final concentration of 5 µM. The inhibitory values (IC50) were determined using the program Assay Analyzer® from GeneData.

ACSS2 = biological target: T2, ACSS2 (Homo sapiens, UniProt Q9NR19); experiment: Cellular assay of 14C acetate incorporation into histones (IC50 ACSS2 cellular histone); type: cell-based; conditions: HCT-15 cells
T2 construct: endogenous fatty acid synthesis activity in the human HCT-15 cancer cell line; endogenous in cells; host or cells: HCT-15
T2 sequence (Q9NR19 whole entry): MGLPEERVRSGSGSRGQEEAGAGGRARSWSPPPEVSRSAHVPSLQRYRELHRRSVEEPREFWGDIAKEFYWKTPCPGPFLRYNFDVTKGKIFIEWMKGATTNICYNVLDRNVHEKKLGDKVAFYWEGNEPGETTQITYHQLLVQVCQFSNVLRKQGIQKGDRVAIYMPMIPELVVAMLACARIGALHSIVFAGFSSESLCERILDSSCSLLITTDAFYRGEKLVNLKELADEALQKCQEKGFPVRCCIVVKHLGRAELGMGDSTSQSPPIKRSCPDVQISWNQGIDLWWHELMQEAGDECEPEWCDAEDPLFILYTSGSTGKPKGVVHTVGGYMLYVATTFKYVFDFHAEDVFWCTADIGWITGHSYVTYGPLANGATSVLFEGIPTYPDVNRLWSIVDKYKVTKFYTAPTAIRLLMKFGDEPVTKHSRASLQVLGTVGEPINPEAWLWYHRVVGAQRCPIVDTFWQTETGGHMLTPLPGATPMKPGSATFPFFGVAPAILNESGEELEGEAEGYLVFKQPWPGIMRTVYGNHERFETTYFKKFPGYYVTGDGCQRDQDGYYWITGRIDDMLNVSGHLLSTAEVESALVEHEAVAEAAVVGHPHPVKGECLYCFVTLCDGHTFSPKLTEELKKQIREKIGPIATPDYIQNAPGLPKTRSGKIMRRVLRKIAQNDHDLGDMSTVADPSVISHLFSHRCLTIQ
Protocol: This protocol describes a cellular assay capable to quantify endogenous histone acetylation activity in the human HCT-15 cancer cell line following the incorporation of extracellularly administered radiolabeled ^14C acetate with a scintillation based read out on acid extracted histones.
HCT-15 cells are trypsinized, washed and suspended in DMEM culture medium supplemented with penicillin/streptomycin (100 U/mL), sodium pyruvate (1 mM), and 10% FBS
Compounds serial dilutions are prepared in 96-well V-bottom microplate from 10 mM stock solutions in DMSO. From these dilutions 0.5 µl are transferred to a fresh plate including pure DMSO as negative control. The dilutions are prepared such, that the final concentration in the assay is 1/400 of the concentration in the serial dilution. The final DMSO concentration in the assay is 0.25 %.
The cell suspension is seeded at densities of 2x10^5 cells per 170 µl into individual wells of a 96 well plate each containing 0.5 µl aliquots of compound serial dilutions and are kept for 1h in a cell incubator. To each well 30 µL of a mixture containing 0.5 mCi/mL of ^14C-acetate with full medium are added. Then, the wells are incubated for 3 hrs in the cell incubator.
Further steps of the procedure should be conducted on ice or instrumentations precooled to 4° C. Cells are sedimented in the 96-well V-bottom microplate by centrifugation (Eppendorf 5804 R) at 1200 rpm for 5 min. The supernatant is removed and the cells are washed twice with 200µL of PBS-NaB (5 mM sodium butyrate) buffer by iterative resuspension and centrifugation. Finally, the cells are resuspended in 50 µL of TEB (PBS-NaB + 0.5 % Triton X-100) and left on ice for 10 minutes. After centrifugation at 2300 rpm for 10 minutes at 4° C. the supernatant is removed, the remaining pellet is suspended in 50 µL of 0.2 M HCl and incubated over night at 4° C. After incubation the well plate is shaken for 2 minutes in a MTP plate shaker set to 1200 rpm and then centrifuged at 3700 rpm for 10 mins. The lysate is carefully aspirated (~43 µL) and transferred into a white MTP plate (Greiner bio-one 65509). 90 µL of Ultima Gold XR scintillation cocktail are added and the plates are sealed with a transparent cover tape before mixing vigorously using plate shaker set to 1200 rpm. Radioactivity from ^14C incorporation in the wells is measured as CPM count in a MicroBeta Trilux luminescence counter.

T1 sequence (Q9NR19 whole entry): as above

Row | SMILES | IC50 (human rec ACSS2) [nM] | IC50 (ACSS2) [nM]
1 | CCn1cc(NC(=O)c2cc3c(nc2OC)nc(C(O)(c2ccccc2)c2ccc(OC(F)F)cc2F)n3CC)cn1 (racemic) [Compound 79, 2-{[4-(difluoromethoxy)-2-fluorophenyl](hydroxy)phenylmethyl}-1-ethyl-N-(1-ethyl-1H-pyrazol-4-yl)-5-methoxy-1H-imidazo[4,5-b]pyridine-6-carboxamide] | 10 to 100 | 1 to 10
2 | CCn1cc(NC(=O)c2cc3c(nc2OC)nc(C(O)(c2ccccc2)c2ccc(OC(F)F)cc2)n3CC)cn1 (racemic) [Compound 80, 2-{[4-(difluoromethoxy)phenyl](hydroxy)phenylmethyl}-1-ethyl-N-(1-ethyl-1H-pyrazol-4-yl)-5-methoxy-1H-imidazo[4,5-b]pyridine-6-carboxamide] | 10 to 100 | 10 to 100
3 | CCn1cc(NC(=O)c2cc3c(nc2Cl)nc(C(O)(c2ccccc2)c2ccc(OC(F)F)cc2F)n3CC)cn1 (racemic) [Compound 81, 5-chloro-2-{[4-(difluoromethoxy)-2-fluorophenyl](hydroxy)phenylmethyl}-1-ethyl-N-(1-ethyl-1H-pyrazol-4-yl)-1H-imidazo[4,5-b]pyridine-6-carboxamide] | 1 to 10 | 10 to 100
4 | CCn1cc(NC(=O)c2cc3c(nc2Cl)nc(C(O)(c2ccccc2)c2ccc(OC(F)F)cc2)n3CC)cn1 (racemic) [Compound 84, 5-chloro-2-{[4-(difluoromethoxy)phenyl](hydroxy)phenylmethyl}-1-ethyl-N-(1-ethyl-1H-pyrazol-4-yl)-1H-imidazo[4,5-b]pyridine-6-carboxamide] | 10 to 100 | 10 to 100
5 | CCn1cc(NC(=O)c2cc3c(nc2Cl)nc(C(O)(c2ccc(OC(F)F)cc2)c2ccccc2F)n3CC)cn1 (racemic) [Compound 85, 5-chloro-2-{[4-(difluoromethoxy)phenyl](2-fluorophenyl)hydroxymethyl}-1-ethyl-N-(1-ethyl-1H-pyrazol-4-yl)-1H-imidazo[4,5-b]pyridine-6-carboxamide] | 10 to 100 | 10 to 100
6 | CCn1cnc(NC(=O)c2cc3c(nc2OC)nc(C(O)(c2ccccc2)c2ccc(OC(F)F)cc2)n3CC)n1 (racemic) [Compound 86, 2-{[4-(difluoromethoxy)phenyl](hydroxy)phenylmethyl}-1-ethyl-N-(1-ethyl-1H-1,2,4-triazol-3-yl)-5-methoxy-1H-imidazo[4,5-b]pyridine-6-carboxamide] | 1 to 10 | 1 to 10
7 | CCn1cnc(NC(=O)c2cc3c(nc2OC)nc(C(O)(c2ccc(OC(F)F)cc2)c2ccccc2F)n3CC)n1 (racemic) [Compound 87, 2-{[4-(difluoromethoxy)phenyl](2-fluorophenyl)hydroxymethyl}-1-ethyl-N-(1-ethyl-1H-1,2,4-triazol-3-yl)-5-methoxy-1H-imidazo[4,5-b]pyridine-6-carboxamide] | 1 to 10 | 1 to 10
8 | CCn1cc(NC(=O)c2cc3c(nc2OC)nc(C(O)(c2ccc(OC(F)F)cc2)c2ccccc2F)n3CC)cn1 (racemic) [Compound 88, 2-{[4-(difluoromethoxy)phenyl](2-fluorophenyl)hydroxymethyl}-1-ethyl-N-(1-ethyl-1H-pyrazol-4-yl)-5-methoxy-1H-imidazo[4,5-b]pyridine-6-carboxamide] | 10 to 100 | 10 to 100
9 | CCn1cc(NC(=O)c2cc3c(nc2Cl)nc(C(O)(c2ccccc2F)c2ccc(OC(F)F)cc2F)n3CC)cn1 (racemic) [Compound 93, 5-chloro-2-{[4-(difluoromethoxy)-2-fluorophenyl](2-fluorophenyl)hydroxymethyl}-1-ethyl-N-(1-ethyl-1H-pyrazol-4-yl)-1H-imidazo[4,5-b]pyridine-6-carboxamide] | 1 to 10 | 10 to 100
10 | CCn1cnc(NC(=O)c2cc3c(nc2C)nc(C(O)(c2ccccc2F)c2ccc(OC(F)F)cc2F)n3CC)n1 (racemic) [Compound 97, 2-{[4-(difluoromethoxy)-2-fluorophenyl](2-fluorophenyl)hydroxymethyl}-1-ethyl-N-(1-ethyl-1H-1,2,4-triazol-3-yl)-5-methyl-1H-imidazo[4,5-b]pyridine-6-carboxamide] | 1 to 10 | 10 to 100
11 | CCc1c(C(O)(c2ccccc2)c2ccccn2)nc2cc(OC)c(C(=O)Nc3ncn(CC)n3)cn12 (single isomer, unassigned) [Compound 17, 3-ethyl-N-(1-ethyl-1,2,4-triazol-3-yl)-2-[hydroxy-phenyl-(2-pyridyl)methyl]-7-methoxy-imidazo[1,2-a]pyridine-6-carboxamide] | 10 to 100 | 10 to 100
12 | CCn1cnc(NC(=O)c2cc3c(nc2OC)nc(C(O)(c2ccccc2)c2ccccn2)n3CC)n1 (single isomer, unassigned) [Compound 54, 1-ethyl-N-(1-ethyl-1H-1,2,4-triazol-3-yl)-2-[hydroxy(phenyl)(pyridin-2-yl)methyl]-5-methoxy-1H-imidazo[4,5-b]pyridine-6-carboxamide] | 10 to 100 | 10 to 100
13 | CCn1cnc(NC(=O)c2cc3c(nc2OC)nc(C(O)(c2ccccc2F)c2ccc(OC(F)F)cc2F)n3CC)n1 (single isomer, unassigned) [Compound 71] | 0.01 to 1 | 0.01 to 1
14 | CCn1cnc(NC(=O)c2cc3c(nc2OC)nc(C(O)(c2ccccc2)c2ccc(OC(F)F)cc2)n3CC)n1 (single isomer, unassigned) [Compound 72] | 1 to 10 | 0.01 to 1
15 | CCn1cc(NC(=O)c2cc3c(nc2Cl)nc(C(O)(c2ccccc2)c2ccc(OC(F)F)cc2F)n3CC)cn1 (single isomer, unassigned) [Compound 74] | 1 to 10 | 1 to 10
16 | CCn1cnc(NC(=O)c2cc3c(nc2C)nc(C(O)(c2ccccc2F)c2ccc(OC(F)F)cc2F)n3CC)n1 (single isomer, unassigned) [Compound 95] | 10 to 100 | 10 to 100
17 | CCn1cnc(NC(=O)c2cc3c(nc2C)nc(C(O)(c2ccccc2F)c2ccc(OC(F)F)cc2F)n3CC)n1 (single isomer, unassigned) [Compound 96] | 1 to 10 | 10 to 100
18 | CCn1cnc(NC(=O)c2cc3c(nc2OC)nc(C(O)(c2ccccc2)c2ccccc2)n3CCOC)n1 [Compound 41, N-(1-ethyl-1H-1,2,4-triazol-3-yl)-2-(hydroxydiphenylmethyl)-5-methoxy-1-(2-methoxyethyl)-1H-imidazo[4,5-b]pyridine-6-carboxamide] | 1 to 10 | 1 to 10
19 | CCn1cnc(NC(=O)c2cc3c(nc2OC)nc(C(O)(c2ccccc2C)c2ccccc2C)n3CC)n1 [Compound 52, 1-ethyl-N-(1-ethyl-1H-1,2,4-triazol-3-yl)-2-[hydroxybis(2-methylphenyl)methyl]-5-methoxy-1H-imidazo[4,5-b]pyridine-6-carboxamide] | 10 to 100 | 10 to 100
20 | CCn1ncc(NC(=O)c2cc3c(nc2OC)nc(C(O)(c2ccccc2)c2ccccc2)n3CC)n1 [Compound 58, 1-ethyl-N-(2-ethyl-2H-1,20,3-triazol-4-yl)-2-(hydroxydiphenylmethyl)-5-methoxy-1H-imidazo[4,5-b]pyridine-6-carboxamide] | 10 to 100 | 10 to 100
